From ChEMBL document CHEMBL2321784, “Discovery of 5-benzyl-3-phenyl-4,5-dihydroisoxazoles and 5-benzyl-3-phenyl-1,4,2-dioxazoles as potent firefly luciferase inhibitors” (J Med Chem, 2013)
The source made the active and inactive calls. The calls are words filed in the database; no cut-off is given here.

What was measured:
[1] = target: Luciferin 4-monooxygenase (Photinus pyralis) (UniProt P08659); assay: Inhibition of recombinant firefly luciferase at 10 uM after 20 mins by luminescence assay
[2] = target: Luciferin 4-monooxygenase (Photinus pyralis) (UniProt P08659); assay: Inhibition of recombinant firefly luciferase at 1 nM after 20 mins by luminescence assay
[3] = target: Luciferin 4-monooxygenase (Photinus pyralis, UniProt P08659); assay: Inhibition of recombinant firefly luciferase after 20 mins by luminescence assay
Luciferin 4-monooxygenase, sequence (P08659 whole entry): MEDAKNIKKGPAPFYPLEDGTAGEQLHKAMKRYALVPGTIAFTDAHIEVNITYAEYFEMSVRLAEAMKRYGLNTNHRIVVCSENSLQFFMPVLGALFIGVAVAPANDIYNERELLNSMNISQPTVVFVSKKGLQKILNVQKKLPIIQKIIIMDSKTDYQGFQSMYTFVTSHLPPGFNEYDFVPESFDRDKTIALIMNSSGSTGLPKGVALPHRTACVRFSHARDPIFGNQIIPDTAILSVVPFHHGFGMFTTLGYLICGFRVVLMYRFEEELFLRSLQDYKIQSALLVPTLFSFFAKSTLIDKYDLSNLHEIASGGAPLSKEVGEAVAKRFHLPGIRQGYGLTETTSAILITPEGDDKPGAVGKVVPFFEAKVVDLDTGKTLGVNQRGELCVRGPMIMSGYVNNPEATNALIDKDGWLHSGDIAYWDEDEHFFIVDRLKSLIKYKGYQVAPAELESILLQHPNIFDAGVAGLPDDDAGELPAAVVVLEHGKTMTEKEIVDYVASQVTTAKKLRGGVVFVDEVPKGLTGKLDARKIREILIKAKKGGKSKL

[4] = target: Luciferin 4-monooxygenase (Photinus pyralis) (UniProt P08659); assay: Noncovalent inhibition of recombinant firefly luciferase assessed as inhibition of enzyme-compound adduct formation at 10 uM after 5 mins by SDS-PAGE based liquid scintillation counting analysis; conditions: tested as the 14C-labelled form
[5] = target: Luciferin 4-monooxygenase (Photinus pyralis) (UniProt P08659); assay: Inhibition of recombinant firefly luciferase activity expressed in U87 cells at 10 uM after 48 hrs; format: cell-based; conditions: U-87MG ATCC
[6] = target: Luciferin 4-monooxygenase (Photinus pyralis) (UniProt P08659); assay: Inhibition of recombinant firefly luciferase activity expressed in U87 cells at 10 uM after 2 mins; format: cell-based; conditions: U-87MG ATCC
[7] = target: Luciferin 4-monooxygenase (Photinus pyralis) (UniProt P08659); assay: Noncompetitive inhibition of recombinant firefly luciferase using luciferin as substrate at 1 to 100 nM after 30 min by Michaelis-Menten plot analysis
[8] = target: Luciferin 4-monooxygenase (Photinus pyralis) (UniProt P08659); assay: Noncompetitive inhibition of recombinant firefly luciferase using ATP as substrate at 1 to 100 nM after 30 mins by Michaelis-Menten plot analysis

Luciferin 4-monooxygenase (Photinus pyralis), sequence (P08659 whole entry): as above

| inhibition [1] [%] | inhibition [2] [%] | IC50 [3] [nM] | SMILES | further results |
| --- | --- | --- | --- | --- |
| 71.5 | 6.7 | 2190 | Oc1cccc(C2=NO[C@@H](Cc3ccccc3)C2)c1 |  |
| 67.1 | 6.1 | 2190 | COc1ccc(C2=NO[C@@H](Cc3ccccc3OC)C2)cc1 |  |
| 91.8 | 29.8 | 16.2 | COc1ccccc1CC1CC(c2ccc(Cl)cc2)=NO1 (racemic) |  |
| 68 | 6.4 | 2450 | COc1ccc(C2=NO[C@@H](Cc3ccccc3)C2)cc1 |  |
| 41.5 | 5.5 |  | c1ccc(C[C@H]2CC(c3cccc4ccccc34)=NO2)cc1 | pIC50 [3]: > 5 |
| 99.5 | 76.8 | 0.309 | Fc1ccc(C2=NO[C@H](Cc3ccccc3)C2)cc1 |  |
| 99.6 | 6.8 |  | Oc1ccc(/C=C/c2cc(O)cc(O)c2)cc1 |  |
| 96 | 30.5 | 13.8 | COc1ccc(C2=NO[C@H](CCc3ccccc3)C2)cc1 |  |
| 37.4 | 3.1 |  | COc1ccc(C[C@@H]2CC(c3ccc(OC)cc3)=NO2)cc1 | pIC50 [3]: > 5 |
| 95.8 | 28.7 | 32.4 | CC1(Cc2ccccc2)CC(c2ccc(Cl)cc2)=NO1 (racemic) |  |
| 99.8 | 50.7 | 0.933 | Clc1ccccc1C1=NOC(Cc2ccccc2)C1 (racemic) |  |
| 1.7 | 1 |  | COc1ccc(C[C@H]2CC(c3ccc(Cl)cc3)=NO2)cc1 |  |
| 99.4 | 65.9 | 0.398 | COc1cccc(C2=NO[C@H](Cc3ccccc3)C2)c1 |  |
| 85.6 | 7.7 | 741 | Fc1ccc(C2=NO[C@@H](Cc3ccccc3)C2)cc1 |  |
| 88.3 | 17.7 | 417 | Clc1ccc(C2=NO[C@@H](Cc3ccccc3)C2)cc1 |  |
| 40.9 | 2 |  | Clc1ccc(C2=NO[C@H](Cc3cccc4ccccc34)C2)cc1 | pIC50 [3]: > 5 |
| 64.2 | 1.5 | 3240 | Clc1ccc(C2=NOC(CCc3ccccc3)C2)cc1 (racemic) |  |
| 31.9 | 1.7 |  | CC(C)c1ccc(C[C@H]2CC(c3ccc(Cl)cc3)=NO2)cc1 | pIC50 [3]: > 5 |
| 62.2 | 3 | 2510 | c1ccc(C[C@@H]2CC(c3cccc4ccccc34)=NO2)cc1 |  |
| 57.5 | 5.2 | 6920 | COc1ccccc1C1=NO[C@@H](Cc2ccccc2)C1 |  |
| 31.5 | 4.9 |  | c1ccc(C[C@H]2CC(c3ccc4ccccc4c3)=NO2)cc1 | pIC50 [3]: > 5 |

| inhibition [1] [%] | inhibition [2] [%] | IC50 [3] [nM] | SMILES | further results |
| --- | --- | --- | --- | --- |
| 99.2 | 53.6 | 0.891 | N#Cc1ccc(C2=NO[C@H](Cc3ccccc3)C2)cc1 |  |
| 99.2 | 53 | 0.871 | Fc1ccc(C[C@@H]2CC(c3ccc(Cl)cc3)=NO2)cc1 |  |
| 42.8 | 5.3 |  | Oc1ccc(C2=NO[C@@H](Cc3ccccc3)C2)cc1 | pIC50 [3]: > 5 |
| 6.8 | 2.5 |  | COc1ccc(C2=NO[C@@H](CCc3ccccc3)C2)cc1 |  |
|  |  |  | N#Cc1ccc(C2=NOC(Cc3ccccc3)C2)cc1 (racemic) | inhibition [4]: Active |
| 88.3 | 14.7 | 331 | N#Cc1ccc(C2=NO[C@@H](Cc3ccccc3)C2)cc1 |  |
| 99.4 | 51.7 | 0.912 | COc1ccccc1C1=NO[C@H](Cc2ccccc2)C1 |  |
| 96.4 | 63.9 | 0.741 | O=[N+]([O-])c1ccc(C2=NOC(Cc3ccccc3)C2)cc1 (racemic) |  |
| 97 | 13.4 | 87.1 | c1ccc(C[C@@H]2CC(c3ccc4ccccc4c3)=NO2)cc1 |  |
| 25.5 | 4 |  | COc1ccc(C2=NO[C@@H](Cc3cccc(OC)c3)C2)cc1 | pIC50 [3]: > 5 |
| 96.7 | 20.6 | 17 | COc1cccc(C[C@@H]2CC(c3ccc(Cl)cc3)=NO2)c1 |  |
| 97.6 | 20.3 | 21.9 | COc1ccc(C2=NOC(C)(Cc3ccccc3)C2)cc1 (racemic) |  |
| 36.6 | 1.9 |  | Clc1ccc(C2=NO[C@@H](Cc3cccc4ccccc34)C2)cc1 | pIC50 [3]: > 5 |
| 98.7 | 43.8 | 1.17 | COc1ccc(C2=NO[C@H](Cc3cccc(OC)c3)C2)cc1 |  |
| 41.3 | -1.9 |  | COc1ccc(C2=NO[C@@H](Cc3ccc(F)cc3)C2)cc1 | pIC50 [3]: > 5 |
| 86.8 | 1.4 | 603 | Fc1ccc(C[C@H]2CC(c3ccc(Cl)cc3)=NO2)cc1 |  |
| 0.7 | 0.4 |  | CC(C)c1ccc(C[C@@H]2CC(c3ccc(Cl)cc3)=NO2)cc1 |  |
| 98.6 | 42 | 5.25 | COc1ccc(C2=NO[C@@H](Cc3ccccc3)O2)cc1 |  |
| 99.5 | 56.1 | 0.955 | COc1ccc(C2=NO[C@H](Cc3ccccc3)O2)cc1 |  |
| 75.3 | 9.6 | 1950 | COc1cccc(C2=NO[C@@H](Cc3ccccc3)C2)c1 |  |
| 79.7 | 8.9 | 1120 | Oc1ccccc1C1=NO[C@@H](Cc2ccccc2)C1 |  |

| inhibition [1] [%] | inhibition [2] [%] | IC50 [3] [nM] | SMILES | further results |
| --- | --- | --- | --- | --- |
| 100 | 26.7 | 10.5 | COc1ccc(C2=NO[C@H](Cc3ccc(F)cc3)C2)cc1 |  |
| 94.8 | 26.1 | 15.1 | Clc1cccc(C2=NOC(Cc3ccccc3)C2)c1 (racemic) |  |
| 33.6 | 1.1 |  | COc1cccc(C[C@H]2CC(c3ccc(Cl)cc3)=NO2)c1 | pIC50 [3]: > 5 |
| 98.4 | 48.1 | 1.95 | Oc1ccccc1C1=NO[C@H](Cc2ccccc2)C1 |  |
| 2.2 | 0.9 |  | COc1ccc(CC2CC(c3ccc(Cl)cc3)=NO2)cc1OC (racemic) |  |
| 3.1 | 3.3 |  | COc1ccc(C[C@H]2CC(c3ccc(OC)cc3)=NO2)cc1 |  |
| 99.8 | 70.9 | 0.288 | COc1ccc(C2=NO[C@H](Cc3ccccc3)C2)cc1 | inhibition [5]: Active; inhibition [6]: Active; inhibition [7]: Active; inhibition [8]: Active |
| 63.3 | 5 | 4270 | COc1ccccc1C1=NO[C@@H](Cc2ccccc2)O1 |  |
| 98.8 | 46.5 | 1.82 | COc1ccc(C2=NO[C@H](Cc3ccccc3OC)C2)cc1 |  |
| 98 | 38.8 | 2.82 | Fc1ccccc1C1=NOC(Cc2ccccc2)O1 (racemic) |  |
| 94.9 | 6.5 | 174 | c1ccc(C[C@H]2CC(c3ccccc3)=NO2)cc1 |  |
| 98.2 | 48.3 | 2.14 | COc1ccccc1C1=NO[C@H](Cc2ccccc2)O1 |  |
| 99.7 | 47 | 0.832 | Oc1cccc(C2=NO[C@H](Cc3ccccc3)C2)c1 |  |
| 99.3 | 57.9 | 0.955 | Fc1ccccc1C1=NO[C@H](Cc2ccccc2)C1 |  |
| 99.5 | 47.1 | 1.58 | c1ccc(C[C@@H]2CC(c3ccccc3)=NO2)cc1 |  |
| 93.3 | 13.1 | 316 | Oc1ccc(C2=NO[C@H](Cc3ccccc3)C2)cc1 |  |
| 30.4 | 3.8 |  | COc1ccc(C[C@@H]2CC(c3ccc(Cl)cc3)=NO2)cc1 | pIC50 [3]: > 5 |
| 83 | 11.3 | 1020 | Fc1ccccc1C1=NO[C@@H](Cc2ccccc2)C1 |  |
| 99.6 | 68.5 | 0.525 | Clc1ccccc1C1=NOC(Cc2ccccc2)O1 (racemic) |  |

| SMILES | inhibition [1] [%] | inhibition [2] [%] | IC50 [3] [nM] | further results |
| --- | --- | --- | --- | --- |
| CCc1ccc(C[C@@H]2CC(c3ccc(Cl)cc3)=NO2)cc1 | 29.4 | 6.3 |  | pIC50 [3]: > 5 |
| Fc1cccc(C2=NO[C@H](Cc3ccccc3)C2)c1 | 98.2 | 61.6 | 0.955 |  |
| CCc1ccc(C[C@H]2CC(c3ccc(Cl)cc3)=NO2)cc1 | 50.2 | 2.5 | 8710 |  |
| Fc1cccc(C2=NO[C@@H](Cc3ccccc3)C2)c1 | 84.1 | -3.7 | 1000 |  |
